Laboratory results taken from BindingDB's records for doi:10.1016/s0968-0896(99)00101-7 (Otsuka Pharmaceutical Co., Ltd, 1999).
pIC50: −log10 of the molar value.

Columns and labels:
[1] = target: Vasopressin V1a receptor (Homo sapiens, UniProt P37288); test: Radioligand Binding Assay to HeLa Cells
Description: (§1) After reaching confluence in 12-well or 24-well dishes, the cells were washed twice with ice-cold PBS and incubated for 2 hr with [3H]-AVP at 4 deg C. For the competition experiment, test compounds were dissolved in dimethyl sulfoxide, diluted with DMEM medium and added into the wells at several appropriate concentrations. […] The protein content of the lysed cells was determined by the method of Bradford.

[2] = target: Vasopressin V2 receptor (Homo sapiens, UniProt P30518); test: Radioligand Binding Assay to HeLa Cells; details: pH 7.4; 4 °C
Sequence of Vasopressin V2 receptor (P30518 whole entry): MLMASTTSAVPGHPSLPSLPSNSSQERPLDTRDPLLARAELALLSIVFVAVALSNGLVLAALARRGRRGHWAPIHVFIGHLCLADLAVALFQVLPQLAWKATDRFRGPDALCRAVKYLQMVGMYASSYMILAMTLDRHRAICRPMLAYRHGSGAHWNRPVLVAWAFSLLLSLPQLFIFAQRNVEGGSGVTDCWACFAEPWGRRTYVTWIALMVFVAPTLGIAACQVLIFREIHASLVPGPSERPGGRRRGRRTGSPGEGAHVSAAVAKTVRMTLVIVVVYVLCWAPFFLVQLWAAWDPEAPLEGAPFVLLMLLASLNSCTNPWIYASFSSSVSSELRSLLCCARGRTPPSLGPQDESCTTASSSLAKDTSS
Description: as §1

Sequence of Vasopressin V1a receptor (P37288 whole entry): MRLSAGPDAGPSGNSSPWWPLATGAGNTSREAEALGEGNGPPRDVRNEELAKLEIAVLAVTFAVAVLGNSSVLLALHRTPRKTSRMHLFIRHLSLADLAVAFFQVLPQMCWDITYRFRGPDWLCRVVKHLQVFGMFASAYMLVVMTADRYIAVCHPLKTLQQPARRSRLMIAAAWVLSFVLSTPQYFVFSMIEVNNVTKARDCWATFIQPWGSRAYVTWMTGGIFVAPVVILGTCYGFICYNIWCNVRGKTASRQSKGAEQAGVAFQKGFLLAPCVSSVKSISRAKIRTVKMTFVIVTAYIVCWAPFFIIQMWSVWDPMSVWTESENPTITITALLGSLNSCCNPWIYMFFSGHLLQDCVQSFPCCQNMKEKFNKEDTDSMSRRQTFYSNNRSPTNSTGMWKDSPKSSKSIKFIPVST

SMILES | pIC50 ([1]; pH 7.4, 4 °C) | pIC50 [2] | pIC50 [1]
CNC1CCCN(C(=O)c2ccc(NC(=O)c3ccccc3C)cc2)c2ccc(Cl)cc21 (stereo not drawn) [benzazepine derivative, 13a] | 7.19 | 8.15 | 
Cc1ccccc1C(=O)Nc1ccc(C(=O)N2CCCC(N(C)C)c3cc(Cl)ccc32)cc1 (stereo not drawn) [benzazepine derivative, 14] | 6.72 | 7.60 | 
Cc1ccccc1C(=O)Nc1ccc(C(=O)N2CCCC(N(C)C)c3ccc(Cl)cc32)cc1 (stereo not drawn) [benzazepine derivative, 15] | 5.92 | 7.20 | 
Cc1ccccc1C(=O)Nc1ccc(C(=O)N2CCCC(N(C)C)c3cccc(Cl)c32)cc1 (stereo not drawn) [benzazepine derivative, 16] | 6.27 | 6.85 | 
Cc1ccccc1C(=O)Nc1ccc(C(=O)N2CCCC(N(C)C)c3c(Cl)cccc32)cc1 (stereo not drawn) [benzazepine derivative, 17] | 5.77 | 6.72 | 
C=CCNC1CCCN(C(=O)c2ccc(NC(=O)c3ccccc3C)cc2)c2ccc(Cl)cc21 (stereo not drawn) [benzazepine derivative, 18] | 7.35 | 7.74 | 
C=CCN(C)C1CCCN(C(=O)c2ccc(NC(=O)c3ccccc3C)cc2)c2ccc(Cl)cc21 (stereo not drawn) [benzazepine derivative, 19] | 6.46 | 7.01 | 
Cc1ccccc1C(=O)Nc1ccc(C(=O)N2CCCC(O)c3cc(Cl)ccc32)cc1 (stereo not drawn) [benzazepine derivative, 20] | 7.77 | 8.52 | 
COC1CCCN(C(=O)c2ccc(NC(=O)c3ccccc3C)cc2)c2ccc(Cl)cc21 (stereo not drawn) [benzazepine derivative, 21] | 7.47 | 8.30 | 
C=CCOC1CCCN(C(=O)c2ccc(NC(=O)c3ccccc3C)cc2)c2ccc(Cl)cc21 (stereo not drawn) [benzazepine derivative, 22] | 7.28 | 8.05 | 
Cc1ccccc1C(=O)Nc1ccc(C(=O)N2CCCC(O)c3cc(Cl)ccc32)c(Cl)c1 (stereo not drawn) [benzazepine derivative, 30] | 6.54 | 8.10 | 
Cc1ccccc1C(=O)Nc1ccc(C(=O)N2CCCC(O)c3cc(Cl)ccc32)cc1Cl (stereo not drawn) [benzazepine derivative, 31] | 7.51 | 7.55 | 
COc1cc(NC(=O)c2ccccc2C)ccc1C(=O)N1CCCC(O)c2cc(Cl)ccc21 (stereo not drawn) [benzazepine derivative, 33] |  | 7.89 | 7.41
COc1cc(C(=O)N2CCCC(O)c3cc(Cl)ccc32)ccc1NC(=O)c1ccccc1C (stereo not drawn) [benzazepine derivative, 34] |  | 8.30 | 8.15
